{"source": "paper PMC7438494", "about": "(Communications Biology, 2020)", "key": {"[1]": {"target": "yeast mitochondrial ATP synthase (yeast SMP) (Saccharomyces cerevisiae, UniProt P00854+P61829)", "assay": "biochemical", "conditions": "for ATP hydrolysis activity, Exp 1-3: SMP, lower block, listed as Og-A"}, "yeast F1Fo ATP synthase": {"target": "yeast F1Fo ATP synthase (Saccharomyces cerevisiae, UniProt P00854+P61829)", "assay": "biochemical", "conditions": "for ATP hydrolysis activity, Exp 1-3: upper block, head prints SMP, listed as Og-A"}, "human ATP synthase": {"target": "human ATP synthase (Homo sapiens, UniProt P00846+P05496)", "assay": "biochemical", "assay_type": "biochemical"}, "[2]": {"target": "yeast mitochondrial ATP synthase (Saccharomyces cerevisiae, UniProt P00854+P61829)", "assay": "biochemical", "conditions": "for Cyanide sensitive: 60 min"}, "[3]": {"target": "yeast mitochondrial ATP synthase (Saccharomyces cerevisiae, UniProt P61829)", "assay": "Uncoupling of the yeast mitochondrial ATP synthase", "assay_type": "biochemical", "conditions": "high concentrations"}, "[4]": {"conditions": "1 ug/ml Oligomycin, […], frozen human mito"}, "[5]": {"conditions": "read-out: % activity, cyanide sensitive ATP synthesis"}, "[6]": {"conditions": "Oligomycin-A 0.05 μM, cyanide sensitive, yeast frozen mito"}, "[7]": {"conditions": "Oligomycin-A 0.6 μM, cyanide sensitive, yeast frozen mito"}}, "note": "Values joined by “and” are separate entries in the source; they are usually repeats but may differ in a detail not shown here. Equal values may be shown once. Read-outs that look alike come from different tables or passages of the source.", "data": [{"molecule": "CC[C@@H]1/C=C/C=C/C[C@H](C)[C@@H](O)[C@](C)(O)C(=O)[C@H](C)[C@@H](O)[C@H](C)C(=O)[C@H](C)[C@@H](O)[C@H](C)/C=C/C(=O)O[C@H]2[C@@H](C)[C@@H](CC1)O[C@@]1(CC[C@@H](C)[C@@H](C[C@H](C)O)O1)[C@@H]2C", "note": "[Oligomycin A]", "values": [{"measurement": "ATP hydrolysis activity, Exp 1-3", "setting": "[1]; Og-A 0.0101 uM", "result": "0.8851 and 0.8864 and 0.89"}, {"measurement": "ATP hydrolysis activity, Exp 1-3", "setting": "[1]; Og-A 0.0506 uM", "result": "0.8632 and 0.8483 and 0.878"}, {"measurement": "ATP hydrolysis activity, Exp 1-3", "setting": "[1]; Og-A 0.2528 uM", "result": "0.7765 and 0.7817 and 0.7989"}, {"measurement": "ATP hydrolysis activity, Exp 1-3", "setting": "[1]; Og-A 0.632 uM", "result": "0.6228 and 0.6613 and 0.6108"}, {"measurement": "ATP hydrolysis activity, Exp 1-3", "setting": "[1]; Og-A 1.2641 uM", "result": "0.4529 and 0.4416 and 0.4356"}, {"measurement": "ATP hydrolysis activity, Exp 1-3", "setting": "[1]; Og-A 6.3205 uM", "result": "0.1135 and 0.1053 and 0.1112"}, {"measurement": "ATP hydrolysis activity, Exp 1-3", "setting": "[1]; Og-A 15.8012 uM", "result": "0.0859 and 0.0937 and 0.0705"}, {"measurement": "ATP hydrolysis activity, Exp 1-3", "setting": "[1]; Og-A 31.6024 uM", "result": "0.097 and 0.0697 and 0.0822"}, {"measurement": "IC50", "setting": "[1]; n = 3, read-out: IC50 ± SEM, ATP hydrolysis, yeast SMP", "result": "~1.1 µM and 1.1 µM"}, {"measurement": "inhibition of ATP hydrolysis by yeast F1Fo (extent)", "setting": "yeast F1Fo ATP synthase; F1Fo in bicelles, maximal", "result": 85, "unit": "%"}, {"measurement": "IC50", "setting": "yeast F1Fo ATP synthase; F1Fo in bicelles, n = 3, read-out: IC50 ± SEM, ATP hydrolysis, purified yeast F1Fo", "result": "0.107 ± 0.0011", "unit": "µM"}, {"measurement": "IC50", "setting": "yeast F1Fo ATP synthase; F1Fo in bicelles, read-out: IC50, ATP hydrolysis, purified yeast F1Fo", "result": "~0.1", "unit": "µM"}, {"measurement": "EC50", "setting": "yeast F1Fo ATP synthase; reconstituted in bicelles, n = 3, read-out: EC50, inhibition of the ATPase activity of purified yeast ATP synthase", "result": "0.107 ± 0.0011", "unit": "µM"}, {"measurement": "ATP hydrolysis activity, Exp 1-3", "setting": "yeast F1Fo ATP synthase; Og-A 0.0101128 uM", "result": "0.9127 and 0.9068 and 0.9174"}, {"measurement": "ATP hydrolysis activity, Exp 1-3", "setting": "yeast F1Fo ATP synthase; Og-A 0.0505638 uM", "result": "0.7469 and 0.6678 and 0.6555"}, {"measurement": "ATP hydrolysis activity, Exp 1-3", "setting": "yeast F1Fo ATP synthase; Og-A 0.252819 uM", "result": "0.4366 and 0.4305 and 0.5"}, {"measurement": "ATP hydrolysis activity, Exp 1-3", "setting": "yeast F1Fo ATP synthase; Og-A 1.26409 uM", "result": "0.3568 and 0.3661 and 0.3907"}, {"measurement": "ATP hydrolysis activity, Exp 1-3", "setting": "yeast F1Fo ATP synthase; Og-A 6.32047 uM", "result": "0.2269 and 0.2038 and 0.2221"}, {"measurement": "ATP hydrolysis activity, Exp 1-3", "setting": "yeast F1Fo ATP synthase; Og-A 15.8012 uM", "result": "0.2056 and 0.2009 and 0.2105"}, {"measurement": "ATP hydrolysis activity, Exp 1-3", "setting": "yeast F1Fo ATP synthase; Og-A 31.6024 uM", "result": "0.2364 and 0.1839 and 0.1796"}, {"measurement": "extent of inhibition of ATP synthesis of the human enzyme", "setting": "human ATP synthase", "result": "nearly completely"}, {"measurement": "% activity", "setting": "human ATP synthase; [4]", "result": 19.1774, "unit": "%"}, {"measurement": "% inhibition", "setting": "human ATP synthase; [4]", "result": 80.8226, "unit": "%"}, {"measurement": "ATP produced, nmol/min/mg", "setting": "human ATP synthase; [4]", "result": 1.61, "unit": "nmol/min/mg"}, {"measurement": "ATP produced, pmol/min/mg", "setting": "human ATP synthase; [4]", "result": 1614.78, "unit": "pmol/min/mg"}, {"measurement": "activity at 1 µg/mL", "setting": "human ATP synthase; [4]", "result": 19.2, "unit": "%"}, {"measurement": "inhibition at 1 µg/mL", "setting": "human ATP synthase; [4]", "result": 80.8, "unit": "%"}, {"measurement": "IC50", "setting": "human ATP synthase; IC50 ± SEM, ATP synthesis, human mitoplasts", "result": "0.0054 ± 0.0006", "unit": "µM"}, {"measurement": "remaining activity at 0.001 µM", "setting": "human ATP synthase; [5]", "result": 70.9, "unit": "%"}, {"measurement": "remaining activity at 0.007 µM", "setting": "human ATP synthase; [5]", "result": 34.6, "unit": "%"}, {"measurement": "remaining activity at 0.01 µM", "setting": "human ATP synthase; [5]", "result": 18.4, "unit": "%"}, {"measurement": "inhibition at 1.25 µM", "setting": "human ATP synthase; read-out: inhibition of cyanide sensitive ATP synthesis, human mitoplasts", "result": 98, "unit": "%"}, {"measurement": "remaining activity at 0.0005 µM", "setting": "[2]; Oligomycin-A 0.0005 μM, cyanide sensitive, yeast frozen mito", "result": 110, "unit": "%"}, {"measurement": "remaining activity at 0.005 µM", "setting": "[2]; Oligomycin-A 0.005 μM, cyanide sensitive, yeast frozen mito", "result": 101, "unit": "%"}, {"measurement": "Cyanide sensitive", "setting": "[2]; Oligomycin-A 0.01 μM, yeast frozen mito", "result": "21.2843 nmol/min/mg and 38.526 nmol/min/mg and 37.46 nmol/min/mg"}, {"measurement": "inhibition at 0.05 µM", "setting": "[2]; [6]", "result": 16.9, "unit": "%"}, {"measurement": "remaining activity at 0.05 µM", "setting": "[2]; [6]", "result": 83.1, "unit": "%"}, {"measurement": "Cyanide sensitive", "setting": "[2]; Oligomycin-A 0.05 μM, yeast frozen mito", "result": "16.4622 nmol/min/mg and 31.3703 nmol/min/mg"}, {"measurement": "Cyanide sensitive", "setting": "[2]; Oligomycin-A 0.08 μM, yeast frozen mito", "result": "15.1607 nmol/min/mg and 21.1456 nmol/min/mg and 29.9684 nmol/min/mg"}, {"measurement": "Cyanide sensitive", "setting": "[2]; Oligomycin-A 0.2 μM, yeast frozen mito", "result": "6.587 nmol/min/mg and 5.248 nmol/min/mg and 9.417 nmol/min/mg"}, {"measurement": "inhibition at 0.6 µM", "setting": "[2]; [7]", "result": 95.6, "unit": "%"}, {"measurement": "remaining activity at 0.6 µM", "setting": "[2]; [7]", "result": 4.43, "unit": "%"}, {"measurement": "Cyanide sensitive", "setting": "[2]; Oligomycin-A 0.6 μM, yeast frozen mito", "result": "0.8771 nmol/min/mg and 1.272 nmol/min/mg and 1.435 nmol/min/mg"}, {"measurement": "inhibition at 1 µM", "setting": "[2]; Oligomycin-A 1 μM, cyanide sensitive, yeast frozen mito, read-out: % inhibition", "result": 100, "unit": "%"}, {"measurement": "inhibition at 2 µM", "setting": "[2]; Oligomycin-A 2 μM, cyanide sensitive, yeast frozen mito", "result": 100, "unit": "%"}, {"measurement": "IC50", "setting": "[2]; n = 3, read-out: IC50 ± SEM, ATP synthesis, yeast mitochondria", "result": "0.1 ± 0.008", "unit": "µM"}, {"measurement": "inhibition at 1 µM", "setting": "[2]; read-out: inhibition of cyanide sensitive ATP synthesis, yeast mitochondria", "result": 98, "unit": "%"}]}, {"molecule": "venturicidin", "values": [{"measurement": "uncoupling of the yeast mitochondrial ATP synthase", "setting": "[3]", "result": "uncouples"}]}]}
